Laboratory results taken from ChEMBL document CHEMBL5331145, “Discovery of a Novel Bifunctional Steroid Analog, YXG-158, as an Androgen Receptor Degrader and CYP17A1 Inhibitor for the Treatment of Enzalutamide-Resistant Prostate Cancer” (J Med Chem, 2023).
Calls of active or inactive are those of the source. No cut-off for these calls is given here.

Key:
LNCaP = experiment: Antiproliferative activity against human LNCaP cells incubated for 6 days by CellTiter-Glo assay; type: functional, cell-based
[1] = molecular target: Voltage-gated inwardly rectifying potassium channel KCNH2 (Homo sapiens, UniProt Q12809); experiment: Inhibition of human ERG by patch clamp assay; type: toxicity
Voltage-gated inwardly rectifying potassium channel KCNH2, sequence (Q12809 whole entry): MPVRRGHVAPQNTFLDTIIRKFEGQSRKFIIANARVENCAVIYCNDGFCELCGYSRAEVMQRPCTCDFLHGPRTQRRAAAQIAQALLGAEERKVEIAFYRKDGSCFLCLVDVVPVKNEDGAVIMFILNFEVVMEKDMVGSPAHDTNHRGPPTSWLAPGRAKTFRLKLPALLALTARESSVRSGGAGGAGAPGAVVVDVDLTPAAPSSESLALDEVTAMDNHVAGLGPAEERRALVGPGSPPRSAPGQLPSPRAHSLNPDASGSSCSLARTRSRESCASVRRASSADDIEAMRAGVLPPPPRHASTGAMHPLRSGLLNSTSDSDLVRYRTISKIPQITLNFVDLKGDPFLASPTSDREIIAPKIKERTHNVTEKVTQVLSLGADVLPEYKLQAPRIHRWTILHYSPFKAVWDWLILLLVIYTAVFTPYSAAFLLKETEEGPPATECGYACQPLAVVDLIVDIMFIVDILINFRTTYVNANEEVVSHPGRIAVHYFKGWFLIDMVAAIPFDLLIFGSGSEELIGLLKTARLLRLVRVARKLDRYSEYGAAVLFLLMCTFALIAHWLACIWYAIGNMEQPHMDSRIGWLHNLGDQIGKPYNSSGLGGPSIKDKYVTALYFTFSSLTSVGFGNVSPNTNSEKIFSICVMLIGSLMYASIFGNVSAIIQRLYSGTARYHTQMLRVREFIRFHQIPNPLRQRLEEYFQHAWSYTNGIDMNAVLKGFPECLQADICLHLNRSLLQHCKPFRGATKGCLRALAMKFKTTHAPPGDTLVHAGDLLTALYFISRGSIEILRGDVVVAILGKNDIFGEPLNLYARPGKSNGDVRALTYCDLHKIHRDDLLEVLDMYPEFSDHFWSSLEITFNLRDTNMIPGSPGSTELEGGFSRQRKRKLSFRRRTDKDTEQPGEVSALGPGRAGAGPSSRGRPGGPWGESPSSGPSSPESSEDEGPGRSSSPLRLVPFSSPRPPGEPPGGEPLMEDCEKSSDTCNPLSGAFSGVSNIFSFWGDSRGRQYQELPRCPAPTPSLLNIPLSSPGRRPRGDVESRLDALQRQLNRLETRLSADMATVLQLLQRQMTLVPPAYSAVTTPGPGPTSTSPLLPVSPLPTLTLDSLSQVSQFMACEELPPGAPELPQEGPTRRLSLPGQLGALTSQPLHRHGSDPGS

Androgen receptor = molecular target: T1, Androgen receptor (Homo sapiens, UniProt P10275); experiment: Induction of androgen receptor degradation in human LNCaP cells incubated for 24 hrs by ELISA; type: cell-based
T1 sequence (P10275 whole entry): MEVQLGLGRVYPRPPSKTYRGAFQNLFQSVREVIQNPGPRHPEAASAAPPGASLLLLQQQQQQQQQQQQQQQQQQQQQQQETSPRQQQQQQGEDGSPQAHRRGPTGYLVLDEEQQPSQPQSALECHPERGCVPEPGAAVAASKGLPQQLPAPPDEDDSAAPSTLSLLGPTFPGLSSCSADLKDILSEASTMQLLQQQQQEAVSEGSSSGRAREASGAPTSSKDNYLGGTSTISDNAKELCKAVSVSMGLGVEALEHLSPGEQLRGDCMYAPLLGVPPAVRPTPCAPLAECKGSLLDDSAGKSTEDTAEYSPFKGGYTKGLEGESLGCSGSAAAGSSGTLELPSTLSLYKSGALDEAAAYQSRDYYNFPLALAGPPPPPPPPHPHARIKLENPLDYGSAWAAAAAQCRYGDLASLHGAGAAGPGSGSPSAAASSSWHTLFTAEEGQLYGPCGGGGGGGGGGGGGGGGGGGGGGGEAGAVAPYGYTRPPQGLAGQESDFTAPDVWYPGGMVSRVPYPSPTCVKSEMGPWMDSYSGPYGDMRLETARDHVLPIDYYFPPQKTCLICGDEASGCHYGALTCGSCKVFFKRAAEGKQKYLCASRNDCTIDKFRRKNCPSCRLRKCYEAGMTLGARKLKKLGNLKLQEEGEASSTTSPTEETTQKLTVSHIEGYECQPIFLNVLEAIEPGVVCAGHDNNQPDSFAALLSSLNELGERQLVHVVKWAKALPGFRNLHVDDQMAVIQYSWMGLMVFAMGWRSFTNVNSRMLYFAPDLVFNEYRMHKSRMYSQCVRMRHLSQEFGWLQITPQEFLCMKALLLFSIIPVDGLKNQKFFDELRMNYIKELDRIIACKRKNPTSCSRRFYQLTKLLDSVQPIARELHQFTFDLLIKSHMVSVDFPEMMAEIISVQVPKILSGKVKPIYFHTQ

[2] = molecular target: T2, Steroid 17-alpha-hydroxylase/17,20 lyase (Homo sapiens, UniProt P05093); experiment: Inhibition of recombinant human CYP17A1 using progesterone as substrate incubated for 5 mins in presence of NADPH by LC-MS/MS analysis; type: ADME
T2 sequence (P05093 whole entry): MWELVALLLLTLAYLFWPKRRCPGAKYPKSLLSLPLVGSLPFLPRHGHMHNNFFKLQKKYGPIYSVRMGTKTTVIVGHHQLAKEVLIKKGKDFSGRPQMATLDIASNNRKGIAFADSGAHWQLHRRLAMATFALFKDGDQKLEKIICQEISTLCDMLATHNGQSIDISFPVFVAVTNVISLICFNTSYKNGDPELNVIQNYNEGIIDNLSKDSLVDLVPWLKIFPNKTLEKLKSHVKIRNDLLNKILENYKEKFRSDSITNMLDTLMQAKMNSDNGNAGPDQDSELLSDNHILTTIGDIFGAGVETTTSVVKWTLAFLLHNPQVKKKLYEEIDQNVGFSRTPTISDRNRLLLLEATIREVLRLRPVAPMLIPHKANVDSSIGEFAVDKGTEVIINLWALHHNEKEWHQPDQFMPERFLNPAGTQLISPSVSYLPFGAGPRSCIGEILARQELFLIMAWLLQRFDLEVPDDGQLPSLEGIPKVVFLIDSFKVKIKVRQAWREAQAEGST

[3] = Half life in Sprague-Dawley rat at 10 mg/kg, po measured upto 24 hrs by LC-MS/MS analysis; type: ADME, organism-based; settings: in vivo
[4] = Tmax in Sprague-Dawley rat at 10 mg/kg, po measured upto 24 hrs by LC-MS/MS analysis; type: ADME, organism-based; settings: in vivo
[5] = Cmax in Sprague-Dawley rat at 10 mg/kg, po measured upto 24 hrs by LC-MS/MS analysis; type: ADME, organism-based; set-up: dose 10 mg/kg, time < 24 hrs, route po; settings: in vivo
[6] = AUC(0 to t) in Sprague-Dawley rat at 10 mg/kg, po measured upto 24 hrs by LC-MS/MS analysis; type: ADME, organism-based; settings: in vivo
[7] = Effect on androgen sensitive organs in testosterone propionate stimulated castrated male Sprague-Dawley rat assessed as seminal vesicles weight loss at 20 mg/kg, po administered once daily for 10 days and measured 24 hrs post last dose; type: functional; settings: time 11 day
[8] = Effect on androgen sensitive organs in testosterone propionate stimulated castrated male Sprague-Dawley rat assessed as ventral prostate weight loss at 20 mg/kg, po administered once daily for 10 days and measured 24 hrs post last dose; type: functional; settings: time 11 day
[9] = Antitumor activity against human LNCaP/AR cells xenografted in SCID male mouse assessed as tumor growth inhibition at 10 mg/kg, po administered once daily for 28 days and measured every 3 days; type: functional; settings: Homo sapiens, LNCaP/AR, 672 h, time 28 day, read-out: TGI
[10] = Toxicity in SCID male mouse xenografted with human LNCaP/AR cells assessed as tolerability at 10 to 30 mg/kg, po administered once daily for 28 days and measured every 3 days; type: organism-based; settings: in vivo, 672 h, dose 10-30 mg/kg, time 28 day
[11] = Toxicity in SCID male mouse xenografted with human LNCaP/AR cells assessed as animal weight loss at 10 to 30 mg/kg, po administered once daily for 28 days and measured every 3 days; type: organism-based; settings: in vivo, 672 h, dose 10-30 mg/kg, time 28 day
[12] = Toxicity in BALB/c mouse xenografted with enzalutamide resistant human LNCaP C4-2B cells assessed as body weight loss at 10 to 30 mg/kg, po administered once daily for 28 days and measured every 3 days; type: organism-based; settings: in vivo, 672 h, dose 10-30 mg/kg, time 28 day
Progesterone receptor = Progesterone receptor (Homo sapiens, UniProt P06401); experiment: Antagonist activity at PR (unknown origin)
Glucocorticoid receptor = Glucocorticoid receptor (Homo sapiens, UniProt P04150); experiment: Antagonist activity at GR (unknown origin)
Glucocorticoid receptor, sequence (P04150 whole entry): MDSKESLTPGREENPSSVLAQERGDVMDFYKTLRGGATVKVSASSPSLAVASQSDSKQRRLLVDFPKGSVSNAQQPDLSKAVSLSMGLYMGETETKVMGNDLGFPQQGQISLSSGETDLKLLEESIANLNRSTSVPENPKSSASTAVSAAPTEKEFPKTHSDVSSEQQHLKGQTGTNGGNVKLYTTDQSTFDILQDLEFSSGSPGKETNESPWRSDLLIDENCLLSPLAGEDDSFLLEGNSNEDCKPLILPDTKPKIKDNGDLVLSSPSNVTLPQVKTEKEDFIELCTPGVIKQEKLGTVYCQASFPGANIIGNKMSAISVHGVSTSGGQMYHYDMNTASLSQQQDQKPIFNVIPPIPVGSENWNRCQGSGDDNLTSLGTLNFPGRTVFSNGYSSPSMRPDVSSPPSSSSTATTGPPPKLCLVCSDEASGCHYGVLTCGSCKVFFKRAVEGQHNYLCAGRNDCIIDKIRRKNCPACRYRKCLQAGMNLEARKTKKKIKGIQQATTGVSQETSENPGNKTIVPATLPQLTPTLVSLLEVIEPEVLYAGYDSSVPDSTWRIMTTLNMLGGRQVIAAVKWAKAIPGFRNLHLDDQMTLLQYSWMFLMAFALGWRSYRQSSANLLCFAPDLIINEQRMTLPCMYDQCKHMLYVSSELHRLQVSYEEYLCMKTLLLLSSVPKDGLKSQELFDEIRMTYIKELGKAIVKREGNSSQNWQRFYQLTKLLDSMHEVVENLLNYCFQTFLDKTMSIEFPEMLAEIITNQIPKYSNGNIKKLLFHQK

Estrogen receptor = Estrogen receptor (Homo sapiens, UniProt P03372); experiment: Antagonist activity at ERalpha (unknown origin)
Estrogen receptor, sequence (P03372 whole entry): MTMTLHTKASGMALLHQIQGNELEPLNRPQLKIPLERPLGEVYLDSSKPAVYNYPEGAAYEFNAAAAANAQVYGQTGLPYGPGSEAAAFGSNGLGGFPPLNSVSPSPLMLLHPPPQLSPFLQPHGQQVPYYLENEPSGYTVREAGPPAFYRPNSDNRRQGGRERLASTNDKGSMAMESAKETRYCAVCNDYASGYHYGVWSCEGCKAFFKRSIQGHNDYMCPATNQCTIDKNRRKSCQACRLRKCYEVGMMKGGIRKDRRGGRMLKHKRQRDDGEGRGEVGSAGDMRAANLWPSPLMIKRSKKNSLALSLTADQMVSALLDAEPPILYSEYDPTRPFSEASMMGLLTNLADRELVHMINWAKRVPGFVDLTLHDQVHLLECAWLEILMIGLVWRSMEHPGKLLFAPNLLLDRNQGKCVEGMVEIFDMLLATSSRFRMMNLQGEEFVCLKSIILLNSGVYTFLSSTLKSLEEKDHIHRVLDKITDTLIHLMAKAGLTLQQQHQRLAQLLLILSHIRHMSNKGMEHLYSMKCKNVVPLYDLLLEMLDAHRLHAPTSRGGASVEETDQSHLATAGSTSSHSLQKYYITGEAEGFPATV

Cytochrome P450 1A2 = Cytochrome P450 1A2 (Homo sapiens, UniProt P05177); experiment: Inhibition of CYP1A2 (unknown origin); type: ADME
Cytochrome P450 1A2, sequence (P05177 whole entry): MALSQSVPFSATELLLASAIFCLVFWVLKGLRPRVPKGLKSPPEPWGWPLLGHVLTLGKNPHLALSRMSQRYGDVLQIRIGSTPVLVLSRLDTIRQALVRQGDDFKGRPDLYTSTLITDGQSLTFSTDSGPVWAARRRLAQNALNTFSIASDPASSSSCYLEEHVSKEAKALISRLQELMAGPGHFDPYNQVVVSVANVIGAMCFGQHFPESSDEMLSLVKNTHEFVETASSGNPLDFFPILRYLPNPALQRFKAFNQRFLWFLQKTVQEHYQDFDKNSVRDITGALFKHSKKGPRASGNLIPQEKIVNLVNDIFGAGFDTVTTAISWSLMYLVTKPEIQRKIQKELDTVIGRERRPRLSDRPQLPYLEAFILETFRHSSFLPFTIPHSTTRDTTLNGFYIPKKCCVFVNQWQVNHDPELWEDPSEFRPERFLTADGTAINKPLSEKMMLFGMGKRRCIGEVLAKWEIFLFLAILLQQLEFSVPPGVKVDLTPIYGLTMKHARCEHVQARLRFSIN

Cytochrome P450 2C19 = Cytochrome P450 2C19 (Homo sapiens, UniProt P33261); experiment: Inhibition of CYP2C19 (unknown origin); type: ADME
Cytochrome P450 2C19, sequence (P33261 whole entry): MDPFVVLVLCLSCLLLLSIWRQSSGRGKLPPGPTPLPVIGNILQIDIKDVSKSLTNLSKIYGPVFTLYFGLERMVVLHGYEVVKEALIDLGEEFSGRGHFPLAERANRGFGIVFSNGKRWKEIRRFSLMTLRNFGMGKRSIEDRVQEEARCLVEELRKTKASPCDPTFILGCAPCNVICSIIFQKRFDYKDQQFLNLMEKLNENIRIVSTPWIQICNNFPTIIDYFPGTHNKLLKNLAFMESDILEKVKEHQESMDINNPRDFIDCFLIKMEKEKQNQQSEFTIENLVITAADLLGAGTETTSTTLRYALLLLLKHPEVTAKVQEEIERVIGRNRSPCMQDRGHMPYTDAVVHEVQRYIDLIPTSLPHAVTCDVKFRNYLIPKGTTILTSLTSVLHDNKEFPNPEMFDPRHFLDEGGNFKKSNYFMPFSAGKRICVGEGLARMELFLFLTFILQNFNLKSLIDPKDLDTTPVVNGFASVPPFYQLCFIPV

Cytochrome P450 2C9 = Cytochrome P450 2C9 (Homo sapiens, UniProt P11712); experiment: Inhibition of CYP2C9 (unknown origin); type: ADME
Cytochrome P450 2D6 = Cytochrome P450 2D6 (Homo sapiens, UniProt P10635); experiment: Inhibition of CYP2D6 (unknown origin); type: ADME
Cytochrome P450 3A4 [13] = molecular target: T3, Cytochrome P450 3A4 (Homo sapiens, UniProt P08684); experiment: Inhibition of CYP3A4 (unknown origin) using midazolam substrate; type: ADME
T3 sequence (P08684 whole entry): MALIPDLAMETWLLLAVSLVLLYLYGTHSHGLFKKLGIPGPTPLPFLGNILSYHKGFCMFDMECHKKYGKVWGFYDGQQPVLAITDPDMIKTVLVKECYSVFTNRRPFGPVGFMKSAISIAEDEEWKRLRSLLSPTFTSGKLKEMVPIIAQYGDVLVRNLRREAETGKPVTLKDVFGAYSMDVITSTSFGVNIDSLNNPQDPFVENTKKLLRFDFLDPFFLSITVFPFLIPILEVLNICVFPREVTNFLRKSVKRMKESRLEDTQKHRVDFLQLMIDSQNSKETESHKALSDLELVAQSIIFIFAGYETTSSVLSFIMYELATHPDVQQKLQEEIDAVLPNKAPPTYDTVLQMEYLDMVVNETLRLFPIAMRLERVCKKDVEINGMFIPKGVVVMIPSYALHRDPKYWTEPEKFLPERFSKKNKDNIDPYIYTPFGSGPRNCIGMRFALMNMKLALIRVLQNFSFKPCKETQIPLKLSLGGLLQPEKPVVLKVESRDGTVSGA

Cytochrome P450 3A4 [14] = molecular target: T3, Cytochrome P450 3A4; experiment: Inhibition of CYP3A4 (unknown origin) using testosterone as substrate; type: ADME
[15] = system: GABA-A receptor; anion channel; experiment: Antagonist activity at GABA-A (unknown origin) at 40 uM relative to control; type: toxicity; settings: human
[16] = Mutagenicity in Salmonella typhimurium TA98 in presence of liver S9 fraction by AMES test; type: toxicity, subcellular; settings: salmonella enterica subsp. enterica serovar typhimurium
[17] = Mutagenicity in Salmonella typhimurium TA100 in presence of liver S9 fraction by AMES test; type: toxicity, subcellular; settings: salmonella enterica subsp. enterica serovar typhimurium
[18] = Mutagenicity in Salmonella typhimurium TA1535 in presence of liver S9 fraction by AMES test; type: toxicity, subcellular; settings: salmonella enterica subsp. enterica serovar typhimurium
[19] = Mutagenicity in Salmonella typhimurium TA1537 in presence of liver S9 fraction by AMES test; type: toxicity, subcellular; settings: salmonella enterica subsp. enterica serovar typhimurium
[20] = Mutagenicity in Escherichia coli WP2 uvrA in presence of liver S9 fraction by AMES test; type: toxicity, subcellular
[21] = Mutagenicity in Salmonella typhimurium TA98 in absence of liver S9 fraction by AMES test; type: toxicity; settings: salmonella enterica subsp. enterica serovar typhimurium
[22] = Mutagenicity in Salmonella typhimurium TA100 in absence of liver S9 fraction by AMES test; type: toxicity; settings: salmonella enterica subsp. enterica serovar typhimurium
[23] = Mutagenicity in Salmonella typhimurium TA1535 in absence of liver S9 fraction by AMES test; type: toxicity; settings: salmonella enterica subsp. enterica serovar typhimurium
[24] = Mutagenicity in Salmonella typhimurium TA1537 in absence of liver S9 fraction by AMES test; type: toxicity; settings: salmonella enterica subsp. enterica serovar typhimurium
[25] = Mutagenicity in Escherichia coli WP2 uvrA in absence of liver S9 fraction by AMES test; type: toxicity
[26] = Genotoxicity in CHL cells in absence of rat liver S9 fraction by micronucleus test; type: toxicity, cell-based, Cricetulus griseus; settings: chinese hamster
[27] = Genotoxicity in CHL cells in presence of rat liver S9 fraction by micronucleus test; type: toxicity, Cricetulus griseus; settings: chinese hamster
[28] = molecular target: T4, Androgen receptor (Homo sapiens) (UniProt P10275); experiment: Potency index, ratio of galeterone DC50 to test compound DC50 for induction of androgen receptor degradation in human LNCaP cells; type: cell-based
T4 sequence (whole entry): T1 sequence (P10275 whole entry)

[29] = system: Androgen receptor (Homo sapiens), P10275 [F877L]; experiment: Antagonist activity at androgen receptor F876L mutant expressed in HEK293 cells assessed as reduction in DHT-induced transcriptional activation of androgen receptor incubated for 24 hrs by Steady-Glo assay relative to control; type: cell-based; set-up: scale not given: the % may be the effect or the level left; settings: filed as antagonist
Androgen receptor (Homo sapiens), P10275 [F877L], sequence (P10275 whole entry F877L): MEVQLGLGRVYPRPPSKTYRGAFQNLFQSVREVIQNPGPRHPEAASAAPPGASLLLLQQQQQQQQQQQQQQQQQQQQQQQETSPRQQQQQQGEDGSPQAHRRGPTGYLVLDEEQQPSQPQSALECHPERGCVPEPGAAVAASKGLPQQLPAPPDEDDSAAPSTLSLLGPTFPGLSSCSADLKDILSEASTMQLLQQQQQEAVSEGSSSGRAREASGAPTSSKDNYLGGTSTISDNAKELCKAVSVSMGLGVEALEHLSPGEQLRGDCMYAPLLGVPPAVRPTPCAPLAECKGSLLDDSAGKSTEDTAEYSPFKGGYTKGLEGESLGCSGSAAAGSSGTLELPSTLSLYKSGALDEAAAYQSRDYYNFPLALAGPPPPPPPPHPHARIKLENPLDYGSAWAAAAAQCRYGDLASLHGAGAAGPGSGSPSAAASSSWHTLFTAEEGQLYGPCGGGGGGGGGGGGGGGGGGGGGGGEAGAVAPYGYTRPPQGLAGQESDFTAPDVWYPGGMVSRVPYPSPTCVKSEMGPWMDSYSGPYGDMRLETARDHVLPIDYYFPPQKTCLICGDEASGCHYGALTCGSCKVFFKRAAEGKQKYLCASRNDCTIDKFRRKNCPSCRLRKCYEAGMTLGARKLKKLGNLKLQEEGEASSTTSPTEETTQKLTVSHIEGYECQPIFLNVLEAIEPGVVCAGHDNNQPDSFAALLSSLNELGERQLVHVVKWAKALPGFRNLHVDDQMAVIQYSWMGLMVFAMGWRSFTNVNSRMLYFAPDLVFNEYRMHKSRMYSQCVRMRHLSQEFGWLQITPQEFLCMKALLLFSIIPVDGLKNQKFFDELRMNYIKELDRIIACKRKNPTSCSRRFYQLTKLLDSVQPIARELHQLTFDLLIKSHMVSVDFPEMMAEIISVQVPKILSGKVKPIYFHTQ

[30] = Toxicity in SCID male mouse xenografted with human LNCaP/AR cells assessed as tolerability at 10 mg/kg, po administered once daily for 28 days and measured every 3 days; type: organism-based; settings: in vivo, 672 h, time 28 day
[31] = Toxicity in SCID male mouse xenografted with human LNCaP/AR cells assessed as animal weight loss at 10 mg/kg, po administered once daily for 28 days and measured every 3 days; type: organism-based; settings: in vivo, 672 h, time 28 day
Mus musculus = experiment: In vivo induction of androgen receptor in human LNCaP/AR cells xenografted in SCID mouse assessed as reduction in PSA level at 10 mg/kg, po administered once daily for 28 days by ELISA; type: functional, organism-based; settings: time 28.0 day
[32] = molecular target: Androgen receptor (Homo sapiens) (UniProt P10275); experiment: In vivo induction of androgen receptor in human LNCaP/AR cells xenografted in SCID mouse assessed as reduction in AR protein level at 10 mg/kg, po administered once daily for 28 days by ELISA; settings: time 28.0 day

Cc1cn(C2=CCC3C4CC=C5C[C@@H](NC(=O)c6ccc(F)cc6)CC[C@]5(C)C4CC[C@]23C)cn1 (stereo partly drawn)
IC50 (LNCaP): 473 nM
IC50 [1]: > 40000 nM
EC50 (Androgen receptor): 1280 nM
IC50 [2]: 100 nM
half-life [3]: 3.28 h
Tmax [4]: 4 h
Cmax [5]: 6430 ng/mL
AUCt [6]: 68872 h/ng/mL
Activity [7]: -64%
Activity [8]: -65%
inhibition in vivo at 10 mg/kg [9]: 56%
Activity [10]: Non-Toxic
Activity [11]: Non-Toxic
Activity [12]: Non-Toxic
IC50 (Progesterone receptor): > 30000 nM
IC50 (Glucocorticoid receptor): > 30000 nM
IC50 (Estrogen receptor): 103 nM
IC50 (Cytochrome P450 1A2): 25000 nM
IC50 (Cytochrome P450 2C19): 4100 nM
IC50 (Cytochrome P450 2C9): 30800 nM
IC50 (Cytochrome P450 2D6): 50000 nM
IC50 (Cytochrome P450 3A4 [13]): 1250 nM
IC50 (Cytochrome P450 3A4 [14]): 810 nM
inhibition (INH) [15]: Not Active
Activity [16]: Non-Toxic
Activity [17]: Non-Toxic
Activity [18]: Non-Toxic
Activity [19]: Non-Toxic
Activity [20]: Non-Toxic
Activity [21]: Non-Toxic
Activity [22]: Non-Toxic
Activity [23]: Non-Toxic
Activity [24]: Non-Toxic
Activity [25]: Non-Toxic
Activity [26]: Non-Toxic
Activity [27]: Non-Toxic

Cc1cn(C2=CCC3C4CC=C5C[C@@H](NC(=O)c6ccc(F)cc6F)CC[C@]5(C)C4CC[C@]23C)cn1 (stereo partly drawn)
IC50 (LNCaP): 327 nM
IC50 [1]: > 40000 nM
EC50 (Androgen receptor): 1680 nM
Ratio [28]: 8.6
IC50 [2]: 127 nM
Activity [29]: 41.6%
half-life [3]: 6.02 h
Tmax [4]: 6 h
Cmax [5]: 1520 ng/mL
AUCt [6]: 22542 h/ng/mL
Activity [7]: -65%
Activity [8]: -65%
inhibition in vivo at 10 mg/kg [9]: 50%
Activity [30]: Non-Toxic
Activity [31]: Non-Toxic
Activity (Mus musculus): Active
Activity [32]: inactive
